Laboratory results reported in PubChem BioAssay (NCI).
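All cell lines were grown in 96-well plates and treated with compound for 48 hours. GI50 is the concentration that inhibits growth by half. The concentration for full growth arrest is given as TGI.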

Key:
Experiment in all cases: growth of human tumour cells (NCI), 48 h
786-0 renal = test system: 786-0 renal
A498 renal = test system: A498 renal
ACHN renal = test system: ACHN renal
BT-549 breast = test system: BT-549 breast
CAKI-1 renal = test system: CAKI-1 renal
CCRF-CEM leukemia = test system: CCRF-CEM leukemia
COLO 205 colon = test system: COLO 205 colon
DU-145 prostate = test system: DU-145 prostate
EKVX NSCLC = test system: EKVX NSCLC
HCC-2998 colon = test system: HCC-2998 colon
HCT-116 colon = test system: HCT-116 colon
HCT-15 colon = test system: HCT-15 colon
HL-60(TB) leukemia = test system: HL-60(TB) leukemia
HOP-62 NSCLC = test system: HOP-62 NSCLC
HOP-92 NSCLC = test system: HOP-92 NSCLC
HS 578T breast = test system: HS 578T breast
IGROV1 ovarian = test system: IGROV1 ovarian
K-562 leukemia = test system: K-562 leukemia
KM12 colon = test system: KM12 colon
LOX IMVI melanoma = test system: LOX IMVI melanoma
M14 melanoma = test system: M14 melanoma
MCF7 breast = test system: MCF7 breast
MDA-MB-231 breast = test system: MDA-MB-231 breast
MDA-MB-435 = test system: MDA-MB-435
MOLT-4 leukemia = test system: MOLT-4 leukemia
NCI-H226 lung = test system: NCI-H226 lung
NCI-H23 lung = test system: NCI-H23 lung
NCI-H460 lung = test system: NCI-H460 lung
NCI-H522 lung = test system: NCI-H522 lung
NCI/ADR-RES ovarian = test system: NCI/ADR-RES ovarian
OVCAR-3 ovarian = test system: OVCAR-3 ovarian
OVCAR-4 ovarian = test system: OVCAR-4 ovarian
OVCAR-5 ovarian = test system: OVCAR-5 ovarian
OVCAR-8 ovarian = test system: OVCAR-8 ovarian
PC-3 prostate = test system: PC-3 prostate
RXF 393 renal = test system: RXF 393 renal
SF-268 CNS = test system: SF-268 CNS
SF-295 CNS = test system: SF-295 CNS
SF-539 CNS = test system: SF-539 CNS
SK-MEL-2 melanoma = test system: SK-MEL-2 melanoma
SK-MEL-5 melanoma = test system: SK-MEL-5 melanoma
SK-OV-3 ovarian = test system: SK-OV-3 ovarian
SN12C renal = test system: SN12C renal
SNB-19 CNS = test system: SNB-19 CNS
SNB-75 CNS = test system: SNB-75 CNS
SR leukemia = test system: SR leukemia
SW-620 colon = test system: SW-620 colon
T-47D breast = test system: T-47D breast
TK-10 renal = test system: TK-10 renal
U251 CNS = test system: U251 CNS
UACC-257 melanoma = test system: UACC-257 melanoma
UACC-62 melanoma = test system: UACC-62 melanoma
UO-31 renal = test system: UO-31 renal
A549 NSCLC = test system: A549 NSCLC
MALME-3M melanoma = test system: MALME-3M melanoma
RPMI-8226 leukemia = test system: RPMI-8226 leukemia
SK-MEL-28 melanoma = test system: SK-MEL-28 melanoma

`CC(=O)OC[C@@]12Cc3ccc(C)c(O)c3[C@]1(C)[C@@H](OC(C)=O)[C@]1(O)[C@H]([C@@H](OC(=O)c3ccccc3)[C@@H](C)[C@H]1OC(C)=O)[C@H]2OC(C)=O` showed a TGI (786-0 renal) greater than 50 µM, a TGI (A498 renal) greater than 50 µM and a TGI (ACHN renal) greater than 50 µM. It also gave a TGI (BT-549 breast) greater than 50 µM, a TGI (CAKI-1 renal) greater than 50 µM and a TGI (CCRF-CEM leukemia) greater than 50 µM. The TGI (COLO 205 colon) was greater than 50 µM, the TGI (DU-145 prostate) was greater than 50 µM and the TGI (EKVX NSCLC) was greater than 50 µM. For the same compound, the TGI (HCC-2998 colon) was greater than 50 µM, the TGI (HCT-116 colon) was greater than 50 µM and the TGI (HCT-15 colon) was greater than 50 µM. For the same compound, the TGI (HL-60(TB) leukemia) was greater than 50 µM, the TGI (HOP-62 NSCLC) was greater than 50 µM and the TGI (HOP-92 NSCLC) was greater than 50 µM. The TGI (HS 578T breast) was greater than 50 µM, the TGI (IGROV1 ovarian) was greater than 50 µM and the TGI (K-562 leukemia) was greater than 50 µM. It also gave a TGI (KM12 colon) greater than 50 µM, a TGI (LOX IMVI melanoma) greater than 50 µM and a TGI (M14 melanoma) greater than 50 µM. The TGI (MCF7 breast) was greater than 50 µM, the TGI (MDA-MB-231 breast) was greater than 50 µM and the TGI (MDA-MB-435) was greater than 50 µM. It also gave a TGI (MOLT-4 leukemia) greater than 50 µM, a TGI (NCI-H226 lung) greater than 50 µM and a TGI (NCI-H23 lung) greater than 50 µM. It also gave a TGI (NCI-H460 lung) greater than 50 µM, a TGI (NCI-H522 lung) greater than 50 µM and a TGI (NCI/ADR-RES ovarian) greater than 50 µM. The TGI (OVCAR-3 ovarian) was greater than 50 µM, the TGI (OVCAR-4 ovarian) was greater than 50 µM and the TGI (OVCAR-5 ovarian) was greater than 50 µM. It also gave a TGI (OVCAR-8 ovarian) greater than 50 µM, a TGI (PC-3 prostate) greater than 50 µM and a TGI (RXF 393 renal) greater than 50 µM. For the same compound, the TGI (SF-268 CNS) was greater than 50 µM, the TGI (SF-295 CNS) was greater than 50 µM and the TGI (SF-539 CNS) was greater than 50 µM. The TGI (SK-MEL-2 melanoma) was greater than 50 µM, the TGI (SK-MEL-5 melanoma) was greater than 50 µM and the TGI (SK-OV-3 ovarian) was greater than 50 µM. For the same compound, the TGI (SN12C renal) was greater than 50 µM, the TGI (SNB-19 CNS) was greater than 50 µM and the TGI (SNB-75 CNS) was greater than 50 µM. The TGI (SR leukemia) was greater than 50 µM, the TGI (SW-620 colon) was greater than 50 µM and the TGI (T-47D breast) was greater than 50 µM. The TGI (TK-10 renal) was greater than 50 µM, the TGI (U251 CNS) was greater than 50 µM and the TGI (UACC-257 melanoma) was greater than 50 µM. The TGI (UACC-62 melanoma) was greater than 50 µM and the TGI (UO-31 renal) was greater than 50 µM.
`CCOC(=O)C#Cc1c(C(=O)OCC)nnn1Cc1ccc([N+](=O)[O-])cc1` gave a GI50 (786-0 renal) of 3.29 µM, a TGI (786-0 renal) of 10.8 µM and a GI50 (A498 renal) of 15.2 µM. The TGI (A498 renal) was 28.5 µM, the GI50 (A549 NSCLC) was 20.6 µM and the TGI (A549 NSCLC) was 34.8 µM. The GI50 (ACHN renal) was 1.89 µM, the TGI (ACHN renal) was 3.45 µM and the GI50 (BT-549 breast) was 5.07 µM. It also gave a TGI (BT-549 breast) of 17 µM, a GI50 (CAKI-1 renal) of 1.76 µM and a TGI (CAKI-1 renal) of 3.3 µM. It also gave a GI50 (CCRF-CEM leukemia) of 1.26 µM, a TGI (CCRF-CEM leukemia) of 5 µM and a GI50 (COLO 205 colon) of 1.97 µM. For the same compound, the TGI (COLO 205 colon) was 3.79 µM, the GI50 (DU-145 prostate) was 3.88 µM and the TGI (DU-145 prostate) was 14.2 µM. It also gave a GI50 (EKVX NSCLC) of 16.4 µM, a TGI (EKVX NSCLC) of 32.9 µM and a GI50 (HCC-2998 colon) of 18.3 µM. The TGI (HCC-2998 colon) was 32.2 µM, the GI50 (HCT-116 colon) was 2.02 µM and the TGI (HCT-116 colon) was 4.3 µM. The GI50 (HCT-15 colon) was 1.66 µM, the TGI (HCT-15 colon) was 3.29 µM and the GI50 (HL-60(TB) leukemia) was 1.62 µM. It also gave a TGI (HL-60(TB) leukemia) of 5.62 µM, a GI50 (HOP-62 NSCLC) of 17.3 µM and a TGI (HOP-62 NSCLC) of 31.6 µM. The GI50 (HOP-92 NSCLC) was 2.22 µM, the TGI (HOP-92 NSCLC) was 5.35 µM and the GI50 (HS 578T breast) was 19.4 µM. For the same compound, the TGI (HS 578T breast) was 61.4 µM, the GI50 (IGROV1 ovarian) was 11.9 µM and the TGI (IGROV1 ovarian) was 28.5 µM. It also gave a GI50 (K-562 leukemia) of 1.32 µM, a TGI (K-562 leukemia) of 10.7 µM and a GI50 (KM12 colon) of 10.2 µM. It also gave a TGI (KM12 colon) of 24.1 µM, a GI50 (LOX IMVI melanoma) of 0.949 µM and a TGI (LOX IMVI melanoma) of 2.29 µM. For the same compound, the GI50 (M14 melanoma) was 2.97 µM, the TGI (M14 melanoma) was 9.13 µM and the GI50 (MALME-3M melanoma) was 1.99 µM. For the same compound, the TGI (MALME-3M melanoma) was 4.29 µM, the GI50 (MCF7 breast) was 2.3 µM and the TGI (MCF7 breast) was 7.22 µM. For the same compound, the GI50 (MDA-MB-231 breast) was 3.25 µM, the TGI (MDA-MB-231 breast) was 9.14 µM and the GI50 (MDA-MB-435) was 3.35 µM. For the same compound, the TGI (MDA-MB-435) was 12.4 µM, the GI50 (MOLT-4 leukemia) was 2.16 µM and the TGI (MOLT-4 leukemia) was 13.3 µM. For the same compound, the GI50 (NCI-H226 lung) was 1.72 µM, the TGI (NCI-H226 lung) was 3.33 µM and the GI50 (NCI-H23 lung) was 8.2 µM. The TGI (NCI-H23 lung) was 26.9 µM, the GI50 (NCI-H460 lung) was 11.1 µM and the TGI (NCI-H460 lung) was 28 µM. It also gave a GI50 (NCI-H522 lung) of 1.92 µM, a TGI (NCI-H522 lung) of 3.8 µM and a GI50 (NCI/ADR-RES ovarian) of 5.5 µM. For the same compound, the TGI (NCI/ADR-RES ovarian) was 21.1 µM, the GI50 (OVCAR-4 ovarian) was 2.54 µM and the TGI (OVCAR-4 ovarian) was 7.14 µM. For the same compound, the GI50 (OVCAR-5 ovarian) was 8.34 µM, the TGI (OVCAR-5 ovarian) was 22.7 µM and the GI50 (OVCAR-8 ovarian) was 3.72 µM. It also gave a TGI (OVCAR-8 ovarian) of 11.1 µM, a GI50 (PC-3 prostate) of 10.2 µM and a TGI (PC-3 prostate) of 22.4 µM. The GI50 (RPMI-8226 leukemia) was 2.8 µM, the TGI (RPMI-8226 leukemia) was 7.37 µM and the GI50 (RXF 393 renal) was 1.89 µM. For the same compound, the TGI (RXF 393 renal) was 3.52 µM, the GI50 (SF-268 CNS) was 7.49 µM and the TGI (SF-268 CNS) was 21.5 µM. It also gave a GI50 (SF-295 CNS) of 18.9 µM, a TGI (SF-295 CNS) of 38.1 µM and a GI50 (SK-MEL-2 melanoma) of 13 µM. For the same compound, the TGI (SK-MEL-2 melanoma) was 26.3 µM, the GI50 (SK-MEL-28 melanoma) was 3.03 µM and the TGI (SK-MEL-28 melanoma) was 10.2 µM. It also gave a GI50 (SK-MEL-5 melanoma) of 8.86 µM, a TGI (SK-MEL-5 melanoma) of 21 µM and a GI50 (SK-OV-3 ovarian) of 21.9 µM. It also gave a TGI (SK-OV-3 ovarian) of 51.1 µM, a GI50 (SN12C renal) of 3.33 µM and a TGI (SN12C renal) of 12.1 µM. It also gave a GI50 (SNB-19 CNS) of 18.9 µM, a TGI (SNB-19 CNS) of 45.3 µM and a GI50 (SNB-75 CNS) of 6.29 µM. The TGI (SNB-75 CNS) was 20.5 µM, the GI50 (SR leukemia) was 1.15 µM and the TGI (SR leukemia) was 4.4 µM. For the same compound, the GI50 (SW-620 colon) was 1.85 µM, the TGI (SW-620 colon) was 3.79 µM and the GI50 (T-47D breast) was 2.78 µM. The TGI (T-47D breast) was 7.65 µM, the GI50 (TK-10 renal) was 1.87 µM and the TGI (TK-10 renal) was 3.33 µM. For the same compound, the GI50 (U251 CNS) was 8.89 µM, the TGI (U251 CNS) was 20.9 µM and the GI50 (UACC-257 melanoma) was 2.71 µM. It also gave a TGI (UACC-257 melanoma) of 7.08 µM, a GI50 (UACC-62 melanoma) of 1.83 µM and a TGI (UACC-62 melanoma) of 4.42 µM. The GI50 (UO-31 renal) was 1.75 µM and the TGI (UO-31 renal) was 3.78 µM.
